Experimental data from PubChem BioAssay (NCI).
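Dose response: 5 concentrations. Exposure: 48 h. Format: 96-well plates. Endpoint: linear interpolation; highest concentration if not reached. TGI: concentration producing complete growth inhibition.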

Legend:
Assay in all cases: NCI anticancer screen, dose series, 48 h
786-0 renal = system: 786-0 renal
A498 renal = system: A498 renal
A549 NSCLC = system: A549 NSCLC
ACHN renal = system: ACHN renal
BT-549 breast = system: BT-549 breast
CAKI-1 renal = system: CAKI-1 renal
CCRF-CEM leukemia = system: CCRF-CEM leukemia
COLO 205 colon = system: COLO 205 colon
DU-145 prostate = system: DU-145 prostate
EKVX NSCLC = system: EKVX NSCLC
HCC-2998 colon = system: HCC-2998 colon
HCT-116 colon = system: HCT-116 colon
HCT-15 colon = system: HCT-15 colon
HL-60(TB) leukemia = system: HL-60(TB) leukemia
HOP-62 NSCLC = system: HOP-62 NSCLC
HOP-92 NSCLC = system: HOP-92 NSCLC
HS 578T breast = system: HS 578T breast
HT29 colon = system: HT29 colon
IGROV1 ovarian = system: IGROV1 ovarian
K-562 leukemia = system: K-562 leukemia
KM12 colon = system: KM12 colon
LOX IMVI melanoma = system: LOX IMVI melanoma
M14 melanoma = system: M14 melanoma
MALME-3M melanoma = system: MALME-3M melanoma
MCF7 breast = system: MCF7 breast
MDA-MB-231 breast = system: MDA-MB-231 breast
MDA-MB-435 = system: MDA-MB-435
MDA-N = system: MDA-N
NCI-H226 lung = system: NCI-H226 lung
NCI-H23 lung = system: NCI-H23 lung
NCI-H460 lung = system: NCI-H460 lung
NCI-H522 lung = system: NCI-H522 lung
NCI/ADR-RES ovarian = system: NCI/ADR-RES ovarian
OVCAR-3 ovarian = system: OVCAR-3 ovarian
OVCAR-4 ovarian = system: OVCAR-4 ovarian
OVCAR-5 ovarian = system: OVCAR-5 ovarian
OVCAR-8 ovarian = system: OVCAR-8 ovarian
PC-3 prostate = system: PC-3 prostate
RPMI-8226 leukemia = system: RPMI-8226 leukemia
RXF 393 renal = system: RXF 393 renal
SF-268 CNS = system: SF-268 CNS
SF-295 CNS = system: SF-295 CNS
SK-MEL-2 melanoma = system: SK-MEL-2 melanoma
SK-MEL-28 melanoma = system: SK-MEL-28 melanoma
SK-MEL-5 melanoma = system: SK-MEL-5 melanoma
SK-OV-3 ovarian = system: SK-OV-3 ovarian
SN12C renal = system: SN12C renal
SNB-19 CNS = system: SNB-19 CNS
SNB-75 CNS = system: SNB-75 CNS
SR leukemia = system: SR leukemia
SW-620 colon = system: SW-620 colon
T-47D breast = system: T-47D breast
TK-10 renal = system: TK-10 renal
U251 CNS = system: U251 CNS
UACC-257 melanoma = system: UACC-257 melanoma
UACC-62 melanoma = system: UACC-62 melanoma
UO-31 renal = system: UO-31 renal

Measured: TGI

OC(Cc1cccnc1)(c1ccccc1)c1ccccc1
> 100 µM: all assays above
